Assay: xn = mol fraction of the nth substance listed
Details: Gas; for viscosity: Oscillating disk viscometry; for mass density: Pycnometric method

CC(F)(F)Cl [1-chloro-1,1-difluoroethane] + FC(F)Cl
Details	mass density [kg/m3]	viscosity [mPa·s]
373.15 K, 2604 kPa, x2 = 0.7502	99.88	0.01618
373.15 K, 2789 kPa, x2 = 0.7502	110.3	0.01638
373.15 K, 2988 kPa, x2 = 0.7502	121.8	0.01665
398.15 K, 100.6 kPa, x2 = 0.7502	2.753	0.01605
398.15 K, 101.6 kPa, x2 = 0.2615	2.997	0.01472
398.15 K, 101.8 kPa, x2 = 0.5169	2.886	0.01547
398.15 K, 102 kPa, x2 = 0.2615	3.006	0.0147
398.15 K, 278.9 kPa, x2 = 0.2615	8.354	0.01475
398.15 K, 345.7 kPa, x2 = 0.5169	9.975	0.01548
398.15 K, 404.8 kPa, x2 = 0.7502	11.29	0.01605
398.15 K, 468 kPa, x2 = 0.2615	14.28	0.01477
398.15 K, 591.5 kPa, x2 = 0.5169	17.39	0.01553
398.15 K, 654.1 kPa, x2 = 0.2615	20.27	0.01482
398.15 K, 779.9 kPa, x2 = 0.7502	22.29	0.01612
398.15 K, 834.7 kPa, x2 = 0.5169	25.01	0.01557
398.15 K, 908.9 kPa, x2 = 0.2615	28.88	0.01485
398.15 K, 1036 kPa, x2 = 0.7502	30.15	0.01619
398.15 K, 1081 kPa, x2 = 0.5169	33.05	0.01562
398.15 K, 1153 kPa, x2 = 0.2615	37.53	0.01493
398.15 K, 1326 kPa, x2 = 0.5169	41.4	0.01572
398.15 K, 1374 kPa, x2 = 0.7502	40.98	0.01628
398.15 K, 1397 kPa, x2 = 0.2615	46.73	0.01504
398.15 K, 1569 kPa, x2 = 0.5169	50.2	0.01584
398.15 K, 1608 kPa, x2 = 0.2615	55.16	0.0151
398.15 K, 1667 kPa, x2 = 0.7502	50.88	0.01642
398.15 K, 1821 kPa, x2 = 0.2615	63.97	0.01525
398.15 K, 1824 kPa, x2 = 0.5169	59.84	0.01596
398.15 K, 2016 kPa, x2 = 0.7502	63.22	0.01657
398.15 K, 2031 kPa, x2 = 0.2615	73.54	0.01542
398.15 K, 2121 kPa, x2 = 0.5169	71.87	0.01616
398.15 K, 2251 kPa, x2 = 0.2615	84.17	0.0156
398.15 K, 2376 kPa, x2 = 0.5169	82.87	0.01632
398.15 K, 2376 kPa, x2 = 0.7502	77.16	0.01679
398.15 K, 2442 kPa, x2 = 0.2615	94.09	0.01576
398.15 K, 2634 kPa, x2 = 0.5169	94.96	0.01655
398.15 K, 2637 kPa, x2 = 0.2615	105.1	0.01598
398.15 K, 2813 kPa, x2 = 0.7502	95.48	0.01711
398.15 K, 2835 kPa, x2 = 0.2615	117.2	0.01629
398.15 K, 2884 kPa, x2 = 0.5169	107.4	0.0168
398.15 K, 3101 kPa, x2 = 0.2615	136	0.01673
398.15 K, 3115 kPa, x2 = 0.7502	109.3	0.01741
398.15 K, 3195 kPa, x2 = 0.5169	124.9	0.01716
398.15 K, 3322 kPa, x2 = 0.2615	154.3	0.01724
398.15 K, 3403 kPa, x2 = 0.7502	128.5	0.01784
398.15 K, 3432 kPa, x2 = 0.5169	139.6	0.01752
398.15 K, 3481 kPa, x2 = 0.2615	170.2	0.01773
398.15 K, 3698 kPa, x2 = 0.2615	196.3	0.01858
398.15 K, 3714 kPa, x2 = 0.5169	159.3	0.01808
398.15 K, 3825 kPa, x2 = 0.7502	146.7	0.01827
398.15 K, 3854 kPa, x2 = 0.2615	222.4	0.01953
398.15 K, 3961 kPa, x2 = 0.5169	179.5	0.01865
398.15 K, 3998 kPa, x2 = 0.2615	261.2	0.02101
398.15 K, 4086 kPa, x2 = 0.7502	162.7	0.01865
398.15 K, 4222 kPa, x2 = 0.5169	204.9	0.01952
398.15 K, 4343 kPa, x2 = 0.7502	180.2	0.01918
398.15 K, 4446 kPa, x2 = 0.5169	231.6	0.02048
398.15 K, 4642 kPa, x2 = 0.7502	203.6	0.01991
398.15 K, 4840 kPa, x2 = 0.7502	218.9	0.0205
423.15 K, 101.1 kPa, x2 = 0.7502	2.597	0.01682
423.15 K, 102.1 kPa, x2 = 0.2615	2.829	0.01579
423.15 K, 102.2 kPa, x2 = 0.5169	2.723	0.01631
423.15 K, 346.2 kPa, x2 = 0.5169	9.354	0.01634
423.15 K, 390.7 kPa, x2 = 0.7502	10.18	0.01687
423.15 K, 394 kPa, x2 = 0.2615	11.13	0.01581
423.15 K, 642 kPa, x2 = 0.5169	17.67	0.01639
423.15 K, 685.5 kPa, x2 = 0.7502	18.14	0.01697
423.15 K, 686.5 kPa, x2 = 0.2615	19.8	0.01588
423.15 K, 935.8 kPa, x2 = 0.5169	26.24	0.01646
423.15 K, 978.6 kPa, x2 = 0.2615	28.81	0.01594
423.15 K, 1026 kPa, x2 = 0.7502	27.65	0.01702
423.15 K, 1230 kPa, x2 = 0.5169	35.16	0.01657
423.15 K, 1273 kPa, x2 = 0.2615	38.54	0.01604
423.15 K, 1368 kPa, x2 = 0.7502	37.56	0.01711
423.15 K, 1537 kPa, x2 = 0.5169	44.54	0.01663
423.15 K, 1569 kPa, x2 = 0.2615	48.6	0.01618
423.15 K, 1706 kPa, x2 = 0.7502	47.76	0.01724
423.15 K, 1832 kPa, x2 = 0.5169	54.69	0.01677
423.15 K, 1878 kPa, x2 = 0.2615	59.81	0.01632
423.15 K, 2055 kPa, x2 = 0.7502	58.73	0.01731
423.15 K, 2158 kPa, x2 = 0.2615	70.63	0.0165
423.15 K, 2158 kPa, x2 = 0.5169	65.98	0.01694
423.15 K, 2415 kPa, x2 = 0.7502	70.79	0.0175
423.15 K, 2436 kPa, x2 = 0.2615	81.74	0.01671
423.15 K, 2444 kPa, x2 = 0.5169	76.64	0.01711
423.15 K, 2719 kPa, x2 = 0.7502	81.34	0.01769
423.15 K, 2740 kPa, x2 = 0.5169	88.1	0.01736
423.15 K, 2797 kPa, x2 = 0.2615	98.1	0.01703
423.15 K, 3055 kPa, x2 = 0.5169	101.2	0.01765
423.15 K, 3152 kPa, x2 = 0.2615	115.5	0.01743
423.15 K, 3159 kPa, x2 = 0.7502	97.7	0.01797
423.15 K, 3389 kPa, x2 = 0.5169	116.1	0.01791
423.15 K, 3440 kPa, x2 = 0.2615	131.6	0.01785
423.15 K, 3481 kPa, x2 = 0.7502	110.3	0.01829
423.15 K, 3680 kPa, x2 = 0.2615	145.8	0.01822
423.15 K, 3703 kPa, x2 = 0.5169	131.2	0.0183
423.15 K, 3855 kPa, x2 = 0.7502	126.4	0.01863
423.15 K, 3921 kPa, x2 = 0.2615	160.9	0.01868
423.15 K, 3992 kPa, x2 = 0.5169	146.2	0.01874
423.15 K, 4203 kPa, x2 = 0.7502	142	0.01894
423.15 K, 4227 kPa, x2 = 0.2615	184.1	0.01939
423.15 K, 4325 kPa, x2 = 0.5169	165.2	0.01926
423.15 K, 4504 kPa, x2 = 0.2615	207.1	0.02023
423.15 K, 4560 kPa, x2 = 0.7502	159.4	0.01947
423.15 K, 4634 kPa, x2 = 0.5169	184.7	0.01988
423.15 K, 4740 kPa, x2 = 0.2615	230.5	0.0212
423.15 K, 4895 kPa, x2 = 0.5169	203.4	0.02048
423.15 K, 4897 kPa, x2 = 0.7502	176.4	0.01997
423.15 K, 4956 kPa, x2 = 0.2615	254.1	0.0222
423.15 K, 5173 kPa, x2 = 0.5169	223.6	0.02124
423.15 K, 5183 kPa, x2 = 0.2615	285.1	0.02361
423.15 K, 5286 kPa, x2 = 0.2615	294.5	0.02439
423.15 K, 5301 kPa, x2 = 0.7502	200.1	0.02057
423.15 K, 5380 kPa, x2 = 0.5169	240.7	0.02187
423.15 K, 5605 kPa, x2 = 0.7502	219.3	0.02121
423.15 K, 5612 kPa, x2 = 0.5169	261.9	0.02295
423.15 K, 5795 kPa, x2 = 0.5169	280.3	0.02357
423.15 K, 5936 kPa, x2 = 0.7502	242.2	0.02202
423.15 K, 6270 kPa, x2 = 0.7502	267.2	0.02299

— the NIST ThermoML archive (doi:10.1007/s10765-009-0579-1)
